Tests used:
[1] = target: T1, c-Met (Homo sapiens, UniProt P08581); assay: c-Met cell-based assay (phospho-c-Met ELISA, A549 cells); conditions: compound at 100 nM
T1 construct: endogenous in cells; host or cells: A549 cells
Description: A procedure for standard cell-based assay for c-Met kinase activity can be used to test compounds of this invention for their inhibitory effect on this kinase and to identify c-Met antagonists.
Specifically, a compound to be tested was first dissolved in DMSO to a concentration of 10 mM and stored at −20° C. The activity of c-Met in cells depends on the phosphorylation level at its intracellular domain induced by its ligand, Hepatocyte growth factor (HGF). In order to induce the cells to produce phosphate c-Met, paracrine HGF-dependent NSCLC (None Small Cell Lung Cancer) A549 cells were grown in DMEM with 10% FBS.
To screen compounds of this invention for their inhibitory effect on c-Met kinase, the ELISA kit (R&D Systems) was used. One day before screening procedure, A549 cells were grown in DMEM without the presence of serum. On the day of screening procedure, various concentrations of compounds (from 0.5 nM to 500 nM) were added into the culture medium. Two hours later, 20% of FBS (Fetal Bovine Serum) was added into the medium to stimulate the expression of phosphor-c-Met. After 20 minutes, cell lysate from approximately 5×10^5 A549 cells were reacted with anti-phosphor-c-Met or anti total c-Met antibody in 96 well plates. In the presence of detection antibody, the phosphor-c-Met or total c-Met can be detected with Streptavidin-HRP (R&D Systems) followed by chemiluminescence detection.

[2] = system: MDA-MB-231 human breast cancer cells; assay: In vivo anti-tumor efficacy, MDA-MB-231 xenograft; conditions: Breast cancer MDA-MB-231, nu/nu Balb/c mice, 100 mg/kg oral once per day, n = 2 × 3
Description: Female (nu/nu) Balb/c athymic mice at 4-6 weeks of age were injected subcutaneously (s.c.) with MDA-MB-231 human breast cancer cells, A549 human non-small cell lung cancer cells, U87-MG human glioblastoma cells, PC-3 human prostate cancer cells, HT-29 human colon cancer, BEL-7404 human hepatocellular carcinoma, or MKN-45 human gastric cancer cells (ATCC, 5×10^6 cells suspended in 100 μl DMEM medium). Treatment was initiated after the tumor mass grown from s.c. implanted tumor cells reached a median volume of 200-400 mm^3. Mice were randomized into groups with three in each group for small-sample efficacy tests such that the median tumor volume is nearly equal among all groups. For large-sample efficacy tests, mice were randomized into groups with thirteen or fourteen in each group. Each group was treated either with compounds (dissolved in 2:1 mixture of PEG400 and 0.01N HCl (v/v)) or without compounds (vehicle only, 2:1 mixture of PEG400 and 0.01N HCl (v/v)) once per day at dose 12.5, 25, 50 or 100 mg/kg by oral gavage. Tumor volumes were assessed at least twice weekly by caliper measurement from the start of treatment. Tumor volume was calculated using the formula ½×L×W^2 (L: length of tumor's long axis, W: length of tumor's short axis). Treatment was applied for at least two weeks or until the tumor volume reaches a size of ˜2500 mm^3 or greater. Mice were humanly sacrificed after the experiment.
The efficacy of compounds in reducing tumor growth was assessed by the index Tumor Growth Inhibition (TGI). TGI for a given treatment period was calculated using the group mean tumor volumes according to the formula: TGI=100×(VVehicle—group−VTreatment—group)÷VVehicle—group wherein VVehicle—group represents the mean tumor volume for the group treated with vehicle and VTreatment—group represents the mean tumor volume of the group treated with a compound.

[3] = target: T2, VEGFR2 (Homo sapiens, UniProt P35968); assay: VEGFR2 cell-based assay (phospho-VEGFR2 ELISA, transfected CHO cells); conditions: compound at 100 nM, read-out: % VEGFR2 kinase activity remains
T2 construct: expressed in transfected cells; host or cells: CHO cells, pcDNA3.1 plasmid
Description: A standard cell-based assay for VEGFR2 kinase activity can be used to test compounds of this invention and to identify VEGFR2 antagonists.
Specifically, a compound to be tested was first dissolved in DMSO to a concentration of 10 mM and stored at −20° C. The activity of VEGFR2 in cells depends on the phosphorylation level at its intracellular domain induced by the ligand. In order to express VEGFR2 in the cells, full length VEGFR2 sequence was cloned into PC-DNA3.1 vector, the plasmid was then transfected into CHO cells. After 48 hours, the expression of VEGFR2 in transfected CHO cells was confirmed by regular western blotting.
To screen the compounds of this invention, the ELISA kit (R&D Systems) was used. One day before the screening, CHO cells transfected with full length VEGFR2 plasmid were grown in DMEM medium without the presence of serum. On the day of screening, various concentrations of compounds (From 0.5 nM to 500 nM) were added into DMEM medium. Two hours later, 20% of FBS (Fetal Bovine Serum) was added into the medium to stimulate the production of phosphor-VEGFR2. Cell lysate from approximately 5×10^5 transfected CHO cells were reacted with anti-phosphor-VEGFR2 or anti-total VEGFR2 antibody in 96 well plates. In the presence of detection antibody, the phosphor-VEGFR2 or total VEGFR2 were detected with Streptavidin-HRP (R&D Systems) followed by chemiluminescence detection.

[4] = target: T3, PDGFRβ (Homo sapiens, UniProt P09619); assay: PDGFRβ cell-based assay (phospho-PDGFRβ ELISA, transfected CHO cells); conditions: compound at 100 nM, read-out: % PDGFRβ kinase activity remains
T3 construct: expressed in transfected cells; host or cells: CHO cells, pcDNA3.1 plasmid
Description: A standard cell-based assay for PDGFRβ kinase activity can be used to test a compound of this invention and to identify PDGFRβ antagonists.
Specifically, a compound to be tested was first dissolved in DMSO to a concentration of 10 mM and stored at −20° C. The activity of PDGFRβ in cells depends on the phosphorylation level of its intracellular domain induced by the ligand. In order to express PDGFRβ in the cell, full length PDGFRβ sequence was cloned into PC-DNA3.1 vector. The plasmid was then transfected into CHO cells. After 48 hours following the transfection, the expression of PDGFRβ in transfected CHO cells was confirmed by regular western blotting.
To screen the compound of this invention, the ELISA kit (R&D Systems, Minneapolis, Minn., USA) was used. One day before the screening, CHO cells transfected with full length PDGFRβ plasmid were grown in DMEM medium without the presence of serum. On the day of screening, various concentrations of compounds (from 0.5 nM to 500 nM) were added into DMEM medium. Two hours later, 20% of FBS (Fetal Bovine Serum) was added into the medium to stimulate the expression of phosphor-PDGFRβ. Cell lysate from approximately 5×10^5 transfected CHO cells were reacted with anti-phosphor-PDGFRβ or anti-total PDGFRβ antibody in 96 well plates, in the presence of detection antibody, the phosphor-PDGFRβ or total PDGFRβ were detected with Streptavidin-HRP (R&D Systems), followed by chemiluminescent detection.

T1 sequence (P08581 25-1390): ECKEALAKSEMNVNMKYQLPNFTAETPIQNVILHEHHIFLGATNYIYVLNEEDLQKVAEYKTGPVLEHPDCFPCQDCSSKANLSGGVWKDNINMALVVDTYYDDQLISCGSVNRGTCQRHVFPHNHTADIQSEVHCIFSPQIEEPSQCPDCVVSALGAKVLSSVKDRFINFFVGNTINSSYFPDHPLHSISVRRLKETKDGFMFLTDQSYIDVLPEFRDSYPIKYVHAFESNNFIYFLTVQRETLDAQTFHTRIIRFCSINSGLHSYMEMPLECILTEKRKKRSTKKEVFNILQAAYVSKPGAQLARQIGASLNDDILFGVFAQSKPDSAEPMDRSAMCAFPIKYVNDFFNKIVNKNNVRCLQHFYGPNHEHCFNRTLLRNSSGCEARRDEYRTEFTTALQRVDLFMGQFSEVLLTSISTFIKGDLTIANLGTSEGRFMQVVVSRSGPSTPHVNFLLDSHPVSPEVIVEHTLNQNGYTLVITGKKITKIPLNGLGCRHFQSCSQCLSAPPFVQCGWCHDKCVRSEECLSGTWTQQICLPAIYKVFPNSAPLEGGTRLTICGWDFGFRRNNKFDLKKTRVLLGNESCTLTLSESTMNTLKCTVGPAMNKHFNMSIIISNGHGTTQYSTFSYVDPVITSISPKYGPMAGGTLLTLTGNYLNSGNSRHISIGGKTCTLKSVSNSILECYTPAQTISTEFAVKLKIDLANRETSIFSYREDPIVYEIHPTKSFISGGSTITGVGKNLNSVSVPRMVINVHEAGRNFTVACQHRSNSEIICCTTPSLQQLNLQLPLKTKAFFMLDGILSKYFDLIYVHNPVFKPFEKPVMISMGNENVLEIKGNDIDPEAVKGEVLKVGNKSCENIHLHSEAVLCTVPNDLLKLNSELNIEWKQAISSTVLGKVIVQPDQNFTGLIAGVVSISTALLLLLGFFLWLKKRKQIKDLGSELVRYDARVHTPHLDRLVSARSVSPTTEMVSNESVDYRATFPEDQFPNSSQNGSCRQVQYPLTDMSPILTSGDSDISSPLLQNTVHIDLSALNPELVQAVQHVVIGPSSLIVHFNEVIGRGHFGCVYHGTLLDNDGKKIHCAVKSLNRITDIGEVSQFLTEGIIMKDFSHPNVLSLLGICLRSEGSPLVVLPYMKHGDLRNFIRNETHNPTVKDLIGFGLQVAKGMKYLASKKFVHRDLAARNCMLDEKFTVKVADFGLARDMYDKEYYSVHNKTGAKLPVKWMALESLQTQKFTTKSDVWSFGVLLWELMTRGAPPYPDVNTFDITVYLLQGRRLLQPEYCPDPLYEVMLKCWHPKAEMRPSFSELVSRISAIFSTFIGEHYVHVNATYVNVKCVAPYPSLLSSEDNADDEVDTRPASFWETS
T2 sequence (P35968 20-1356, species assumed): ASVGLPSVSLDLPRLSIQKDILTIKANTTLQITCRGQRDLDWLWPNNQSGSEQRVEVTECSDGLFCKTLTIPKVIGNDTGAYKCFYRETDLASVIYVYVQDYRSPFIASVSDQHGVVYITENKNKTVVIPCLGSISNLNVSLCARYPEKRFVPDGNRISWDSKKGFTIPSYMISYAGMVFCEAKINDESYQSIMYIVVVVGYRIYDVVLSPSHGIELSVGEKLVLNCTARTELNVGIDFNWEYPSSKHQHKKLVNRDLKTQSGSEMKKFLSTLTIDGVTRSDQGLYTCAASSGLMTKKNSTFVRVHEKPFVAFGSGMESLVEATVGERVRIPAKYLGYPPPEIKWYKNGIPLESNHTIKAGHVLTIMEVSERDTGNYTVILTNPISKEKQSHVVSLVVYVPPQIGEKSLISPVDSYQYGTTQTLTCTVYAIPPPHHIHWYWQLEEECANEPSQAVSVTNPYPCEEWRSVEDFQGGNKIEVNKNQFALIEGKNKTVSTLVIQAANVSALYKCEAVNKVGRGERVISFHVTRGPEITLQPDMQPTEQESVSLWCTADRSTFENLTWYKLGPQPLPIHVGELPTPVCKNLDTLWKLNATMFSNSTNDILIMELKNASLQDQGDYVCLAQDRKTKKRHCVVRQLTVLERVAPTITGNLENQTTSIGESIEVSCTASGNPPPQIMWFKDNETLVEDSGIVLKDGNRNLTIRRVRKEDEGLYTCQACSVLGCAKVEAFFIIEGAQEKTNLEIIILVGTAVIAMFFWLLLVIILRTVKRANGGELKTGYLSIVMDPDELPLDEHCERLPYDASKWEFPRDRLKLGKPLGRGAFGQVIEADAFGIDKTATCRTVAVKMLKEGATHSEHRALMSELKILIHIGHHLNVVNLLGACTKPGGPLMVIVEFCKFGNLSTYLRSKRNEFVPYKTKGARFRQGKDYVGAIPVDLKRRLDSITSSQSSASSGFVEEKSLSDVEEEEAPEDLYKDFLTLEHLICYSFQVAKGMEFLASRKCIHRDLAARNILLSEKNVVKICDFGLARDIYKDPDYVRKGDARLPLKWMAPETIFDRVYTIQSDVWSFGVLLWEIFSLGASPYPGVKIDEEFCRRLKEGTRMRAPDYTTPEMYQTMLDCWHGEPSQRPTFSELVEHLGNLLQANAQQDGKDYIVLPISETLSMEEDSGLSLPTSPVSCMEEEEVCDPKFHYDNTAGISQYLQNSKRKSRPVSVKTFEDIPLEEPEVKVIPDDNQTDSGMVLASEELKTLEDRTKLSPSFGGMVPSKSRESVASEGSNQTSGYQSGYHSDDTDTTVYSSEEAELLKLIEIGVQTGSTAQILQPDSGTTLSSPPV
T3 sequence (P09619 33-1106, species assumed): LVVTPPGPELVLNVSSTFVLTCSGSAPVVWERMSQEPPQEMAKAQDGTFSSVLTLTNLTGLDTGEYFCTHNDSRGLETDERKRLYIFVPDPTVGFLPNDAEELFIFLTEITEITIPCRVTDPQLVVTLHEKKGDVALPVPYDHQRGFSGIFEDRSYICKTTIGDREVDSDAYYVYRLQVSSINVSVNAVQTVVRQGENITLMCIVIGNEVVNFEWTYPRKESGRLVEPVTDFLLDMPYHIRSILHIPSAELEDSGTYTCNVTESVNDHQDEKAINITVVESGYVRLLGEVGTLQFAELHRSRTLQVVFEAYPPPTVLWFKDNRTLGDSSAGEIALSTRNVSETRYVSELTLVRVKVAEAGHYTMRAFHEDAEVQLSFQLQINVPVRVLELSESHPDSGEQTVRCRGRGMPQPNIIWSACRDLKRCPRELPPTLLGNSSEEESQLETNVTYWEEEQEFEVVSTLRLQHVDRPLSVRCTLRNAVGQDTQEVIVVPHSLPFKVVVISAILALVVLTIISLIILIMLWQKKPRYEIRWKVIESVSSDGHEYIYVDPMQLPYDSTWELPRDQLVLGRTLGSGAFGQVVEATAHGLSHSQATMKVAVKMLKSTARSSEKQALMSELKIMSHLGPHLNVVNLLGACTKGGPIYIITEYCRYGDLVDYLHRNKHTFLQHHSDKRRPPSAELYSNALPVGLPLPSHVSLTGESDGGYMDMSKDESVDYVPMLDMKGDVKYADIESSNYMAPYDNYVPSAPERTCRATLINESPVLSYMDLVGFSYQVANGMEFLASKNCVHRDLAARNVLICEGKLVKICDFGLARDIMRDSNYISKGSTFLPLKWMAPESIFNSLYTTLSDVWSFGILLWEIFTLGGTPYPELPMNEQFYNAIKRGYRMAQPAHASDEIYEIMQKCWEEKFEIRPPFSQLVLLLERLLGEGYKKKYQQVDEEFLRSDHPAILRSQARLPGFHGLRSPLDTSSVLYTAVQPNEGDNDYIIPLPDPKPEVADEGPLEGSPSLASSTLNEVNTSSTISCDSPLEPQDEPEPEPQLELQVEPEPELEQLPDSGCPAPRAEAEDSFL

Q: What does the source list for `COc1ccc(Cl)cc1NC(=O)Nc1cccc2c1CCN2Cc1ccnc2[nH]ccc12.Cl` [Example 1, 1-(2-Methoxyl-5-chlorophenyl)-3-[1-(1H-pyrrolo[2,3-b]pyridin-4-ylmethyl)-2,3-dihydro-1H-indol-4-yl]urea hydrochloride]?
A: % c-Met kinase activity remains [1]: A (the percentage of kinase activity remains is below 70%); Tumor Growth Inhibition (TGI) [2]: A (the TGI is greater or equal to 50%); remaining activity at 0.1 µM [3]: < 70%

Q: With `Cl.O=C(Nc1ccc(Cl)cc1F)Nc1cccc2c1ccn2Cc1c[nH]c2ncccc12` [Example 28, 1-(2-Fluoro-4-chlorophenyl)-3-[1-(1H-pyrrolo[2,3-b]pyridin-3-ylmethyl)-1H-indol-4-yl]urea hydrochloride] as the compound, how does the remaining activity at 0.1 µM [4] read?
A: The remaining activity at 0.1 µM was at least 70%.

Q: And the “% c-Met kinase activity remains” value [1]?
A: The value was “A (the percentage of kinase activity remains is below 70%)”.

Q: And the remaining activity at 0.1 µM [3]?
A: The remaining activity at 0.1 µM was under 70%.

Q: What does the source list for `Cl.O=C(Nc1cc(Cl)ccc1F)Nc1cccc2c1ccn2Cc1c[nH]c2ncccc12` [Example 29, 1-(2-Fluoro-5-chlorophenyl)-3-[1-(1H-pyrrolo[2,3-b]pyridin-3-ylmethyl)-1H-indol-4-yl]urea hydrochloride]?
A: remaining activity at 0.1 µM [4]: ≥ 70%; % c-Met kinase activity remains [1]: B (the percentage is greater or equal to 70%); remaining activity at 0.1 µM [3]: < 70%

Q: For `Cl.O=C(Nc1cc(Br)ccc1F)Nc1cccc2c1ccn2Cc1c[nH]c2ncccc12` [Example 30, 1-(2-Fluoro-5-bromophenyl)-3-[1-(1H-pyrrolo[2,3-b]pyridin-3-ylmethyl)-1H-indol-4-yl]urea hydrochloride], which remaining activity at 0.1 µM [4] is on record?
A: The remaining activity at 0.1 µM was at least 70%.

Q: What about the “% c-Met kinase activity remains” value [1] of the same compound?
A: Its value is “B (the percentage is greater or equal to 70%)”.

Q: And the remaining activity at 0.1 µM [3]?
A: The remaining activity at 0.1 µM was under 70%.

Q: What does the source list for `COc1ccc(OC)c(NC(=O)Nc2cccc3c2ccn3Cc2c[nH]c3ncccc23)c1.Cl` [Example 32, 1-(2,5-Dimethoxyphenyl)-3-[1-(1H-pyrrolo[2,3-b]pyridin-3-ylmethyl)-1H-indol-4-yl]urea hydrochloride]?
A: remaining activity at 0.1 µM [4]: ≥ 70%; % c-Met kinase activity remains [1]: A (the percentage of kinase activity remains is below 70%); remaining activity at 0.1 µM [3]: < 70%

Q: Which results are given for `Cl.O=C(Nc1cccc(F)c1)Nc1cccc2c1ccn2Cc1ccnc2[nH]ccc12` [Example 35, 1-(3-Fluorophenyl)-3-[1-(1H-pyrrolo[2,3-b]pyridin-4-ylmethyl)-1H-indol-4-yl]urea hydrochloride]?
A: remaining activity at 0.1 µM [4]: ≥ 70%; % c-Met kinase activity remains [1]: A (the percentage of kinase activity remains is below 70%); remaining activity at 0.1 µM [3]: < 70%

Q: Which remaining activity at 0.1 µM [4] does the source give for `Cl.O=C(Nc1ccc(F)cc1)Nc1cccc2c1ccn2Cc1ccnc2[nH]ccc12` [Example 36, 1-(4-Fluorophenyl)-3-[1-(1H-pyrrolo[2,3-b]pyridin-4-ylmethyl)-1H-indol-4-yl]urea hydrochloride] here?
A: The remaining activity at 0.1 µM was at least 70%.

Q: What about the “% c-Met kinase activity remains” value [1] of the same compound?
A: Its value is “A (the percentage of kinase activity remains is below 70%)”.

Q: What about the remaining activity at 0.1 µM [3] of the same compound?
A: Its remaining activity at 0.1 µM is under 70%.

Q: Which remaining activity at 0.1 µM [4] does the source give for `COc1cccc(NC(=O)Nc2cccc3c2ccn3Cc2ccnc3[nH]ccc23)c1.Cl` [Example 47, 1-(3-Methoxyphenyl)-3-[1-(1H-pyrrolo[2,3-b]pyridin-4-ylmethyl)-1H-indol-4-yl]urea hydrochloride] here?
A: Its remaining activity at 0.1 µM is at least 70%.

Q: And the “% c-Met kinase activity remains” value [1]?
A: Its value is “A (the percentage of kinase activity remains is below 70%)”.

Q: What about the remaining activity at 0.1 µM [3] of the same compound?
A: Its remaining activity at 0.1 µM is under 70%.

Q: `Cl.O=C(Nc1ccc(C(F)(F)F)cc1)Nc1cccc2c1ccn2Cc1ccnc2[nH]ccc12` [Example 52, 1-(4-Trifluoromethylphenyl)-3-[1-(1H-pyrrolo[2,3-b]pyridin-4-ylmethyl)-1H-indol-4-yl]urea hydrochloride] was tested. Which remaining activity at 0.1 µM [4] did it give?
A: The remaining activity at 0.1 µM was at least 70%.

Q: What about the “% c-Met kinase activity remains” value [1] of the same compound?
A: Its value is “B (the percentage is greater or equal to 70%)”.

Q: What about the remaining activity at 0.1 µM [3] of the same compound?
A: The remaining activity at 0.1 µM was under 70%.

Q: How did the remaining activity at 0.1 µM [4] turn out when `Cl.N#Cc1ccc(NC(=O)Nc2cccc3c2ccn3Cc2ccnc3[nH]ccc23)cc1` [Example 54, 1-(4-Cyanophenyl)-3-[1-(1H-pyrrolo[2,3-b]pyridin-4-ylmethyl)-1H-indol-4-yl]urea hydrochloride] was run?
A: Its remaining activity at 0.1 µM is at least 70%.

Q: What about the “% c-Met kinase activity remains” value [1] of the same compound?
A: The value was “B (the percentage is greater or equal to 70%)”.

Q: What about the remaining activity at 0.1 µM [3] of the same compound?
A: The remaining activity at 0.1 µM was at least 70%.

Q: How did the remaining activity at 0.1 µM [4] turn out when `Cl.O=C(Nc1ccc(Cl)cc1F)Nc1cccc2c1ccn2Cc1ccnc2[nH]ccc12` [Example 55, 1-(2-Fluoro-4-chlorophenyl)-3-[1-(1H-pyrrolo[2,3-b]pyridin-4-ylmethyl)-1H-indol-4-yl]urea hydrochloride] was run?
A: The remaining activity at 0.1 µM was at least 70%.

Q: What about the “% c-Met kinase activity remains” value [1] of the same compound?
A: Its value is “B (the percentage is greater or equal to 70%)”.

Q: And the remaining activity at 0.1 µM [3]?
A: Its remaining activity at 0.1 µM is under 70%.
